In ChEMBL document CHEMBL5346910, “N-sulfonyl peptide-hybrids as a new class of dengue virus protease inhibitors” (Eur J Med Chem, 2023):

Columns and labels:
[1] = Cytotoxicity against human HeLa cells by CellTiter-Blue assay; type: toxicity, cell-based
Trypsin [2] = target: T1, Trypsin (Homo sapiens, UniProt P07477+P07478+P35030); assay: Inhibition of trypsin (unknown origin) at 50 uM by biochemical assay relative to control; type: protein assay
Genome polyprotein [3] = target: T2, Genome polyprotein (dengue virus type 2, UniProt P29990); assay: Competitive inhibition of DENV-2 NS2B-NS3 protease assessed as inhibition constant by Cheng-Prusoff plot analysis
[4] = target: Genome polyprotein (West Nile virus) (UniProt P06935); assay: Inhibition of West Nile virus NS2B-NS3 protease at 50 uM by biochemical enzymatic assay relative to control
Genome polyprotein [5] = target: T3, Genome polyprotein (West Nile virus, UniProt P06935); assay: Inhibition of West Nile virus NS2B-NS3 protease assessed as inhibition constant
[6] = target: Prothrombin (Homo sapiens) (UniProt P00734); assay: Inhibition of Thrombin (unknown origin) at 25 uM by biochemical assay relative to control
[7] = target: Genome polyprotein (dengue virus type 2) (UniProt P29990); assay: Inhibition of DENV-2 NS2B-NS3 protease at 50 uM by biochemical enzymatic assay relative to control
Genome polyprotein [8] = target: T2, Genome polyprotein; assay: Inhibition of DENV-2 NS2B-NS3 protease by biochemical enzymatic assay
Genome polyprotein [9] = target: T3, Genome polyprotein; assay: Inhibition of West Nile virus NS2B-NS3 protease by biochemical enzymatic assay
[10] = Metabolic stability in rat liver microsomes measured for 120 mins by UV-based HPLC analysis; type: ADME, Microsome; conditions: 2 h
Trypsin [11] = target: T1, Trypsin; assay: Stability of the compound assessed as trypsin (unknown origin) mediated compound degradation incubated for 60 mins by UV-based HPLC analysis; type: ADME, protein assay; conditions: 1 h
[12] = Stability of the compound assessed as alpha-chymotrypsin (unknown origin) mediated compound degradation incubated for 60 mins by UV-based HPLC analysis; type: ADME; conditions: human, 1 h
[13] = Metabolic stability in rat liver microsomes assessed as parent compound remaining measured for 120 mins by UV-based HPLC analysis; type: ADME, Microsome; conditions: read-out: Stability

T3 sequence (P06935 1371-1501 limits assumed): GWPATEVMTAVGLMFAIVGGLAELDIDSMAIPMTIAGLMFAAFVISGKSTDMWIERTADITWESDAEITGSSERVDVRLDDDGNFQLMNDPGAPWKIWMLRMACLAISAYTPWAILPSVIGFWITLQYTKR
T3 sequence (P06935 1502-2120 limits assumed): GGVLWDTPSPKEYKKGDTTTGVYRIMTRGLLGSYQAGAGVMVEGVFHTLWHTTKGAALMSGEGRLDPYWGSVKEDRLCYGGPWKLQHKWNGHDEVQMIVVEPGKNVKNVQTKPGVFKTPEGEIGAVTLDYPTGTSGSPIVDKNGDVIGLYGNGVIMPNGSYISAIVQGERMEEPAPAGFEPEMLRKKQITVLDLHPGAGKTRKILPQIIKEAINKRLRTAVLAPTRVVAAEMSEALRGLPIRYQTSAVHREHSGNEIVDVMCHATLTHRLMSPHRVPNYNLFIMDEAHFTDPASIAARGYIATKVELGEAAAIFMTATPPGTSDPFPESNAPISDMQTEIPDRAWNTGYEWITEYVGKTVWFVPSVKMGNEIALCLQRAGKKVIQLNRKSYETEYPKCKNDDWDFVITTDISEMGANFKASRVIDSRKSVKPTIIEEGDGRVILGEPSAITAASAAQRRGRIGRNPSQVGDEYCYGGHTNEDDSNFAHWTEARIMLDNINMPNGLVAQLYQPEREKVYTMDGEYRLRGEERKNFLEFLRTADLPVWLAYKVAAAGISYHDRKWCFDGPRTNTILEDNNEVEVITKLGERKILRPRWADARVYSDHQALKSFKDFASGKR
Genome polyprotein (West Nile virus), sequence (P06935 whole entry): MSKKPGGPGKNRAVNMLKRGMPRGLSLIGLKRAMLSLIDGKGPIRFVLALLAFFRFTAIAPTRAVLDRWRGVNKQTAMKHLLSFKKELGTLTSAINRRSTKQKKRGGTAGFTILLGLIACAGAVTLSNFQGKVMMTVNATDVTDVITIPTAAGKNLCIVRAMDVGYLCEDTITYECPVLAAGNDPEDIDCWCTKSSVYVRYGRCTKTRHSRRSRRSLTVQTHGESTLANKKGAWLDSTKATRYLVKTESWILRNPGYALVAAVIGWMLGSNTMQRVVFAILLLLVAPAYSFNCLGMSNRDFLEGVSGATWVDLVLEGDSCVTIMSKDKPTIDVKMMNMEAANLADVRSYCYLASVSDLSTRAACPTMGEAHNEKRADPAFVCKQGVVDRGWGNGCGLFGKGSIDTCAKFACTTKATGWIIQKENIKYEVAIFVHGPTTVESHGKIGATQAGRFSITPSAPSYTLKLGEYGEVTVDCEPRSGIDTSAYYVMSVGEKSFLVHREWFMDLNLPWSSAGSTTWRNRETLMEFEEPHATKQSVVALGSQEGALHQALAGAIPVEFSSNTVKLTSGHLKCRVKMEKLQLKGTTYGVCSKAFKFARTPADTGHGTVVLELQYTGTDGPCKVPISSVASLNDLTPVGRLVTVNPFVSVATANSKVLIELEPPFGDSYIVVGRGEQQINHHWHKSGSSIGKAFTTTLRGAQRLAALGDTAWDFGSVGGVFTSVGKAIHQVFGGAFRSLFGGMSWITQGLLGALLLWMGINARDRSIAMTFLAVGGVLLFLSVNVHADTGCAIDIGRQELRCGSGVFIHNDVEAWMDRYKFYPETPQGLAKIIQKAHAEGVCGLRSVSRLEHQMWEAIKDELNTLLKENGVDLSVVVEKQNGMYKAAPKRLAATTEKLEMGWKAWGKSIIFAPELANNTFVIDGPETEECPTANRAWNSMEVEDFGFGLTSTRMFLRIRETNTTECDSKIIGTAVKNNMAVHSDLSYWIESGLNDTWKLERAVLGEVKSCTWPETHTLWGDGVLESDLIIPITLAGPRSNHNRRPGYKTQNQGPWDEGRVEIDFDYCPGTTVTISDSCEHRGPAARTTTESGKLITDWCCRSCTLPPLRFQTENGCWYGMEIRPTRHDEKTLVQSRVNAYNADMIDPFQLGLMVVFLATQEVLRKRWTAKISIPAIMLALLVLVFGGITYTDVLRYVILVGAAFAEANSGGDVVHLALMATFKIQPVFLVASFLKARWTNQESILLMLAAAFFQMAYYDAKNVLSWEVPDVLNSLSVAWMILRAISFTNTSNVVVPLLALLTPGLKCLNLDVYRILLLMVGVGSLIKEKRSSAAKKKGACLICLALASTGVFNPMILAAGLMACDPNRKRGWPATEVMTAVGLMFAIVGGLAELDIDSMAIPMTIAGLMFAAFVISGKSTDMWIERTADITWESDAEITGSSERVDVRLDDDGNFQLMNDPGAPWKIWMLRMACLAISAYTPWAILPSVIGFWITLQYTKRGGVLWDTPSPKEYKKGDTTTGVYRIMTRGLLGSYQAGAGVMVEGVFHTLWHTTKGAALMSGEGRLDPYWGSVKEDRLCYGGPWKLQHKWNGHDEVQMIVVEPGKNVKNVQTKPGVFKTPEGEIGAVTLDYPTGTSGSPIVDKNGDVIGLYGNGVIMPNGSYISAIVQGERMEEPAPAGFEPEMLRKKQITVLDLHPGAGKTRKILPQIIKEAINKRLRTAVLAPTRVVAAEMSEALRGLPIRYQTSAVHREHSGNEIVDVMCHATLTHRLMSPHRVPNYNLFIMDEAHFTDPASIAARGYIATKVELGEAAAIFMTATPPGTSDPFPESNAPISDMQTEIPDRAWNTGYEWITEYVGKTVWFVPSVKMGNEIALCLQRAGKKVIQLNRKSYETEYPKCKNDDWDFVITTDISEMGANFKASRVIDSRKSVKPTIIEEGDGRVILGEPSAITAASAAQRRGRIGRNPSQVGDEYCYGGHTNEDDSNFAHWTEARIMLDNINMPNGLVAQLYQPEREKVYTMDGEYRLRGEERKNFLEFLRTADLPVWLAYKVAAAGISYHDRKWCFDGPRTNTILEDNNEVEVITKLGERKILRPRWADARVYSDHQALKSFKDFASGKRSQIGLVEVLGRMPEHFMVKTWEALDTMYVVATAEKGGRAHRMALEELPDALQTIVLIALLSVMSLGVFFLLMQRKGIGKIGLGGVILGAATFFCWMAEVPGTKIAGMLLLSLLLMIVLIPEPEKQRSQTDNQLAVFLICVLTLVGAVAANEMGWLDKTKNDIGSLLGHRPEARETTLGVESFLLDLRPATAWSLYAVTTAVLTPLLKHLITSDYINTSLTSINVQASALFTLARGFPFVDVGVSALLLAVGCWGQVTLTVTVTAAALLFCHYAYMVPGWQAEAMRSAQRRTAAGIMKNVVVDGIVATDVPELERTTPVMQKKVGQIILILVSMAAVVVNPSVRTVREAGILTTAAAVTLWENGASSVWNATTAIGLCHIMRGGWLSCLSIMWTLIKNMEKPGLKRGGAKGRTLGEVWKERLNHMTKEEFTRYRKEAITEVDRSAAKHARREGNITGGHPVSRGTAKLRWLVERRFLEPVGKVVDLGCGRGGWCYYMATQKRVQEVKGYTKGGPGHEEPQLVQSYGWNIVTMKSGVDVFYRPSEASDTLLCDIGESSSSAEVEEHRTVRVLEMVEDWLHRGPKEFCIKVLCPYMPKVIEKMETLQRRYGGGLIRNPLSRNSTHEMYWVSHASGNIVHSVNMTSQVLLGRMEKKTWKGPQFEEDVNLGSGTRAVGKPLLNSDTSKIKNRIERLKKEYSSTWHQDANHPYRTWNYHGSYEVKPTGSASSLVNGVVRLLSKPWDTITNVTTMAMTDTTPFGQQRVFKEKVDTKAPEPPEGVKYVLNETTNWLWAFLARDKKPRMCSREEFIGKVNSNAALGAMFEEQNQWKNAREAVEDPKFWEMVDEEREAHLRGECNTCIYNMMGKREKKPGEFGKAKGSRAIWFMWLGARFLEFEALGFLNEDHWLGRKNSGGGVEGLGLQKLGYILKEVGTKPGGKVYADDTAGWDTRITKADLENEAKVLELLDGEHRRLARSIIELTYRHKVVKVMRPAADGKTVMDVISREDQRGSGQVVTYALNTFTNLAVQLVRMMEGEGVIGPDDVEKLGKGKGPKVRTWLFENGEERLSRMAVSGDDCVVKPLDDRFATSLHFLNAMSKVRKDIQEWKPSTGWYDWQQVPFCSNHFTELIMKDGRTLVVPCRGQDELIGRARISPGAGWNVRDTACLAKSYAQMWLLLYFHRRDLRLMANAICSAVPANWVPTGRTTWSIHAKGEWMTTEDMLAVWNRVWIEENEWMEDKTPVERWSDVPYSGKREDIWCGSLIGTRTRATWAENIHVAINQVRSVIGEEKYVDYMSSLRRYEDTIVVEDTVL

SMILES	CC50 [1] [µM]	inhibition (Trypsin [2]) [%]	Ki (Genome polyprotein [3]) [µM]	inhibition [4] [%]	Ki (Genome polyprotein [5]) [µM]	inhibition [6] [%]	inhibition [7] [%]	IC50 (Genome polyprotein [8]) [µM]	IC50 (Genome polyprotein [9]) [µM]	Stability [10]	Stability (Trypsin [11])	Stability [12]	remaining at 2 h [13] [%]
CN([C@@H](Cc1ccc(C(=N)N)cc1)C(=O)N[C@@H](CCCCN)C(=O)N[C@@H](C(N)=O)c1ccc(OCc2ccc(Cl)c(Cl)c2)cc1)S(=O)(=O)c1ccccc1	45.3	11	0.078	84.8	5.1	15.8	98.6	0.089	12.1				
CN([C@@H](Cc1ccc(/C(N)=N/O)cc1)C(=O)N[C@@H](CCCCN)C(=O)N[C@@H](C(N)=O)c1ccccc1)S(=O)(=O)c1ccccc1	> 50	< 10		< 10		< 10	58.5						
CC(C)c1cc(C(C)C)c(S(=O)(=O)N[C@@H](CCCNC(=N)N)C(=O)N[C@@H](CCCCN)C(=O)N[C@@H](C(N)=O)c2ccccc2)c(C(C)C)c1	> 50	< 10		< 10		< 10	20.2						
N=C(N)NCCC[C@H](NS(=O)(=O)c1ccc(Cl)cc1)C(=O)N[C@@H](CCCCN)C(=O)N[C@@H](C(N)=O)c1ccccc1	> 50	< 10		15.5		< 10	44.5						
Cc1ccc(S(=O)(=O)N(C)[C@@H](CCCNC(=N)N)C(=O)N[C@@H](CCCCN)C(=O)N[C@@H](C(N)=O)c2ccccc2)cc1	> 50	20.3		< 10		< 10	75.8	17.9					
Cc1ccc(S(=O)(=O)N(C)[C@@H](Cc2ccc(NC(=N)N)cc2)C(=O)N[C@@H](CCCCN)C(=O)N[C@@H](C(N)=O)c2ccccc2)cc1	> 50	19.9		< 10		< 10	95	1.63					
CN([C@@H](CCCNC(=N)N)C(=O)N[C@@H](CCCCN)C(=O)N[C@@H](C(N)=O)c1ccccc1)S(=O)(=O)c1ccc(Cl)cc1		13		< 10		< 10	75.1	19.4					
CN([C@@H](Cc1ccc(NC(=N)N)cc1)C(=O)N[C@@H](CCCCN)C(=O)N[C@@H](C(N)=O)c1ccccc1)S(=O)(=O)c1ccccc1	> 50	17.1		14.9		< 10	97.6	2.72		Stable	Stable	Stable	
Cc1ccc(S(=O)(=O)N(C)[C@@H](Cc2cccc(N)c2)C(=O)N[C@@H](CCCCN)C(=O)N[C@@H](C(N)=O)c2ccccc2)cc1		< 10		< 10		< 10	23.2						
N=C(N)NCCC[C@H](NS(=O)(=O)c1ccc([N+](=O)[O-])cc1)C(=O)N[C@@H](CCCCN)C(=O)N[C@@H](C(N)=O)c1ccccc1	> 50	30.6		18.4		< 10	24.7						
N=C(N)NCCC[C@H](NS(=O)(=O)C1CCCCC1)C(=O)N[C@@H](CCCCN)C(=O)N[C@@H](C(N)=O)c1ccccc1	> 50	17.4		< 10		< 10	65.2						
CN([C@@H](CCCNC(=N)N)C(=O)N[C@@H](CCCCN)C(=O)N[C@@H](C(N)=O)c1ccccc1)S(=O)(=O)c1ccccc1	> 50	< 10		< 10		< 10	80.6	11		Stable	Stable	Stable	
CN([C@@H](Cc1ccc(C(=N)N)cc1)C(=O)N[C@@H](CCCCN)C(=O)N[C@H](C(N)=O)c1ccc(OCc2ccccc2)cc1)S(=O)(=O)c1ccccc1		34.3		20.2		23.4	102	0.2					
Cc1cc(C)c(S(=O)(=O)N[C@@H](CCCNC(=N)N)C(=O)N[C@@H](CCCCN)C(=O)N[C@@H](C(N)=O)c2ccccc2)c(C)c1	> 50	< 10		< 10		< 10	35.9						
CN(C)C(=O)COC(=O)Cc1ccc(OC(=O)c2ccc(NC(=N)N)cc2)cc1						99							
CN([C@@H](Cc1ccc(C(=N)N)cc1)C(=O)N[C@@H](CCCCN)C(=O)N[C@@H](C(N)=O)c1ccc(OCc2ccccc2)cc1)S(=O)(=O)c1ccccc1	> 200	22	0.092	68.9		22.9	99	0.11	22.2				
N=C(N)Nc1ccc(C[C@H](NS(=O)(=O)c2ccccc2)C(=O)N[C@@H](CCCCN)C(=O)N[C@@H](C(N)=O)c2ccccc2)cc1	> 50	< 10		< 10		< 10	52.6			Stable	Stable	Stable	
CC[C@H](NC(=O)[C@H](Cc1cccc(NC(=N)N)c1)N(C)S(=O)(=O)c1ccc(C)cc1)C(=O)N[C@@H](C(N)=O)c1ccccc1		< 10		< 10		18.1	74.3	18.9					
CN([C@@H](Cc1cccc(N)c1)C(=O)N[C@@H](CCCCN)C(=O)N[C@@H](C(N)=O)c1ccccc1)S(=O)(=O)c1ccccc1		< 10		< 10		< 10	20.4						
Cc1ccc(S(=O)(=O)N[C@@H](CCCNC(=N)N)C(=O)N[C@@H](CCCCN)C(=O)N[C@@H](C(N)=O)c2ccccc2)cc1	> 50	21.6		17.7		< 10	50.5						
CN(C)c1cccc2c(S(=O)(=O)N[C@@H](CCCNC(=N)N)C(=O)N[C@@H](CCCCN)C(=O)N[C@@H](C(N)=O)c3ccccc3)cccc12	> 50	10.7		< 10		2.3	35.3						
CN([C@@H](Cc1cccc(NC(=N)N)c1)C(=O)N[C@@H](CCCCN)C(=O)N[C@@H](C(N)=O)c1ccccc1)S(=O)(=O)c1ccccc1		< 10		10.1		30.2	78.6	13.2					
N=C(N)NCCC[C@H](NC(=O)c1ccccc1)C(=O)N[C@@H](CCCCN)C(=O)N[C@@H](C(N)=O)c1ccc(OCc2ccccc2)cc1	> 50					< 10							
CN([C@@H](Cc1ccc(C(=N)N)cc1)C(=O)N[C@@H](CCCCN)C(=O)N[C@@H](C(N)=O)c1ccccc1)S(=O)(=O)c1ccccc1	> 200	19.2		48.7		19.6	98.9	0.21			Stable	Stable	100
CN([C@@H](Cc1ccc(C(=N)N)cc1)C(=O)N[C@@H](CCCCN)C(=O)N[C@@H](C(N)=O)c1ccc(O)cc1)S(=O)(=O)c1ccccc1		14.7		33.7		30.3	101	0.44					
CN([C@@H](CCCNC(=N)N)C(=O)N[C@@H](CCCCN)C(=O)N[C@H](C(N)=O)c1ccccc1)S(=O)(=O)c1ccccc1	> 50	< 10		< 10		< 10	75.3	17.6					
CN([C@@H](Cc1ccc(C(=N)N)cc1)C(=O)N[C@@H](CCCCN)C(=O)N[C@@H](C(N)=O)c1ccc(OCc2ccc(C(F)(F)F)cc2)cc1)S(=O)(=O)c1ccccc1	75.3	18.3		80.4		15.8	99.2	0.12	13.9				
N=C(N)NCCC[C@H](NS(=O)(=O)c1ccccc1)C(=O)N[C@@H](CCCCN)C(=O)N[C@@H](C(N)=O)c1ccccc1	> 50	< 10		22.3		< 10	44.3			Stable			
